{
  "source": "patent US7230157B1",
  "about": "“Chemical inducible promoter used to obtain transgenic plants with a silent marker and organisms and cells and methods of using same for screening for mutations” (The Rockefeller University, priority 1998, dated 2007)",
  "key": {"tobacco leaf discs": {"system": "tobacco leaf discs", "experiment": "DEX-dependent regeneration and Luc activity of tobacco leaf discs transfected with pTA7002G/ipt/luc", "type": "cell-based, Nicotiana tabacum", "conditions": "for Percentage of LUC^+ regenerants / Total number of regenerants per 28 explants: Tobacco", "protocol": "Nicotiana tabacum seeds cultivar SR1 were surface sterilized in 30% commercial bleach containing 0.02% Tween 20 for 10 minutes and washed five times with sterile water. Plants were grown in a tissue culture room at 22° C. at 16 hour light and 8 hour dark cycles. Tobacco transformation was essentially as described by Horsch et al. (1985) and Klee et al. (1987). Leaf discs were prepared from young leaves of four week old plants and the explants were cultured for two days on MB medium (MS salts, B5 vitamins, 20 g/L sucrose, 20 mg/L acetosyringone, 0.2% phytagel, pH 5.7). […] After 20 to 40 days of culturing, regenerated shoots were excised from explants and cultured on MS medium containing IAA to induce root regeneration.\n(§1) The explants were transferred to fresh medium every two weeks to maintain constant culture conditions.\n(§2) The transformation cassette pTA7002G/ipt/luc (FIG. 12) contained a luc gene under the control of the CaMV 35S promoter (Millar et al., 1992; Benfey and Chua, 1990). Luc activity was measured in order to estimate the number of transgenic shoots using the video imaging system described by Michelet and Chua (1996). Measurements were integrated over 5 minutes and the corresponding background was subtracted from the images (FIGS. 9A-F). Approximately 50% of the regenerants expressed the luc gene (Table 2).\nTo further characterize the transformation system, we examined the effects of the duration of induction as well as the effects of exogenously applied phytohormones. Time course experiments were performed to determine whether the specificity of the induction of the ipt gene decreases over time due to overproduction and diffusion of cytokinin, which could trigger regeneration events in neighboring, non-transformed cells. […] No significant difference in the percentage of regenerants with detectable Luc activity was found over time. After 20 days, 46% of regenerants had detectable Luc activity and after both 30 and 40 days 53% of regenerants had detectable Luc activity. […] Similar results have been obtained with lettuce.\nNo significant difference in luciferase activity occurred at different auxin concentrations. At 1.0 mg/mL auxin 45% of regenerants had detectable Luc activity, at 1.5 mg/mL auxin 58% of regenerants had detectable Luc activity, and at 2.0 mg/mL auxin 47% of regenerants had detectable Luc activity."}, "[1]": {"system": "Arabidopsis root explants", "experiment": "Regeneration of Arabidopsis root explants transfected with XVE-CKI1", "conditions": "MIC medium with 5 μM 17-β-estradiol"}, "tobacco leaf disks": {"system": "tobacco leaf disks", "experiment": "Shoot regeneration from tobacco leaf disks transfected with XVE-CKI1", "type": "cell-based", "conditions": "no externally applied plant hormones", "excerpt": "In addition to the GVG-ipt, pER8-CKI1 (XVE-CKI1) has been used to transfect tobacco leaf disks."}, "tobacco root cells": {"system": "tobacco root cells", "experiment": "Shoot regeneration from tobacco root cells transformed with XVE-CKI1", "type": "cell-based", "excerpt": "The XVE-CKI1 vector was also used to transform tobacco root cells. […] The explants were transferred to fresh MBC medium (with or without the inducer) every two weeks. […] The explants grown in the presence of inducer formed green callus. […] This experiment used the same number of root explants with inducer as without inducer. Since 65 calli formed with inducer and only 49 without inducer, overexpression of CKI1 may also increase the efficiency of callus formation."}, "lettuce leaf disks": {"system": "lettuce leaf disks", "experiment": "DEX-dependent regeneration and Luc activity of lettuce leaf disks transfected with pTA7002G/ipt/luc", "type": "cell-based, Lactuca sativa", "conditions": "DEX 10 μM", "protocol": "Sterilized lettuce […] (Lactuca sativa var. Great Lake #118) were germinated and the seedlings were grown as described for tobacco. Transformation of lettuce leaf discs was performed as described by Curtis et al. (1996) with the exception that cytokinin was omitted from the culture media.\nas §1, §2"}},
  "data": [
    {"compound": "auxin", "values": [
      {"measurement": "regenerants with detectable Luc activity", "setting": "tobacco leaf discs; 10 μM DEX, 40 days", "result": 45, "unit": "%"},
      {"measurement": "regenerants with detectable Luc activity", "setting": "tobacco leaf discs; 1.5 mg/mL auxin and 10 μM DEX, 40 days", "result": 58, "unit": "%"},
      {"measurement": "regenerants with detectable Luc activity", "setting": "tobacco leaf discs; 2.0 mg/mL auxin and 10 μM DEX, 40 days", "result": 47, "unit": "%"}
    ]},
    {"compound": "C[C@]12CC[C@@H]3c4ccc(O)cc4CC[C@H]3[C@@H]1CC[C@@H]2O", "note": "[17-β-estradiol]", "values": [
      {"measurement": "time of culture until small dark green callus appears", "setting": "[1]", "result": "about 10 days"},
      {"measurement": "time of culture until small shoots appear", "setting": "[1]", "result": "about 15 days"},
      {"measurement": "time of shoot initiation after induction", "setting": "tobacco leaf disks", "result": "25 to 35", "unit": "days"},
      {"measurement": "time of shoot initiation after induction", "setting": "tobacco root cells; 5 μM 17-β-estradiol", "result": "40 to 50", "unit": "days"},
      {"measurement": "white/brown calli that became green and produced shoots", "setting": "tobacco root cells; MBC medium with 5 μM 17-β-estradiol", "result": "13 out of 65"}
    ]},
    {"compound": "C[C@@H]1C[C@H]2[C@@H]3CCC4=CC(=O)C=C[C@]4(C)[C@@]3(F)[C@@H](O)C[C@]2(C)[C@@]1(O)C(=O)CO", "note": "[DEX, dexamethasone]", "values": [
      {"measurement": "Percentage of LUC^+ regenerants", "setting": "lettuce leaf disks", "result": 46},
      {"measurement": "Total number of regenerants per 28 explants", "setting": "lettuce leaf disks", "result": 198},
      {"measurement": "regenerants with detectable Luc activity", "setting": "tobacco leaf discs; 10 μM DEX, after 20 days of induction, 54 regenerants", "result": 46, "unit": "%"},
      {"measurement": "regenerants with detectable Luc activity", "setting": "tobacco leaf discs; 10 μM DEX, after 30 days of induction", "result": 53, "unit": "%"},
      {"measurement": "regenerants with detectable Luc activity", "setting": "tobacco leaf discs; 10 μM DEX, after 40 days of induction", "result": 53, "unit": "%"},
      {"measurement": "Percentage of LUC^+ regenerants", "setting": "tobacco leaf discs; DEX 0.1 μM", "result": 29},
      {"measurement": "Total number of regenerants per 28 explants", "setting": "tobacco leaf discs; DEX 0.1 μM", "result": 139},
      {"measurement": "Percentage of LUC^+ regenerants", "setting": "tobacco leaf discs; DEX 1 μM", "result": 44},
      {"measurement": "Total number of regenerants per 28 explants", "setting": "tobacco leaf discs; DEX 1 μM", "result": 129},
      {"measurement": "Percentage of LUC^+ regenerants", "setting": "tobacco leaf discs; DEX 10 μM", "result": 49}
    ]}
  ]
}
